The target of the assay is T1, Human GLP-1 receptor stably expressing cells (hGLP-1R/CHO-K1 cells) (Homo sapiens, UniProt P43220).
T1 construct: expressed in transfected cells
Nature of the assay: Measurement of GLP-1 receptor agonist activity (cAMP assay). The note with it: for Emax: cAMP with 2 nM human GLP-1 (7-36) = 100%, DMSO only = 0%; for pEC50: increase in cAMP concentration in hGLP-1R/CHO-K1 cells, 37° C. 1 hour. It counts as cell-based. The method, then: Test Example 1: Measurement of GLP-1 Receptor Agonist Activity
Human GLP-1 receptor stably expressing cells (hGLP-1R/CHO-K1 cells) are cultured in an a-MEM medium (Sigma) containing 10% FBS (Hyclone), 2% GlutaMAX (Gibco), 1% G418 (Nacalai Tesque), and 1% Penicillin-Streptomycin Mixed Solution (Sigma) at 37° C. under 5% CO2 conditions, and recovered by treating a 10 fold diluted 5.0 g/1-trypsin/5.3 mmol/1-EDTA solution (Nacalai Tesque) and cryopreserved.
A DMSO solution containing the compound of the present invention or human GLP-1 (7-36) (Phoenix Pharmaceuticals) is dispensed into a 384-well microplate (Greiner) at 62.5 nL/well, and in addition, 400 μM Forskolin (Nacalai Tesque) is dispensed therein at 7.5 nL/well. Subsequently, the frozen GLP-1 R/CHO-K1 cells are thawed in a thermostatic bath at 37° C., suspended in HBSS buffer (GIBCO) containing 0.1% BSA (Sigma), 20 mM HEPES, 0.1 mM IBMX (Sigma), and 0.2 mM RO20-1724 (Calbiochem) at 2×10^4 cells/mL, and the cell suspension is added at 6 μL/well. The solution was incubated at 37° C. for 1 hour and intracellular cAMP concentration is measured using cAMP Gs dynamic kit (Cisbio) according to the protocol attached to the product. Specifically, a cAMP-d2/Anti-cAMP-Cryptate (1/1) mixture solution is added in a total amount of 6 μL/well, and is incubated at room temperature for 1 hour, and then, time-resolved fluorescence is measured using PHERAstar (BMG Labtech).
Assuming that the cAMP concentration when human GLP-1 (7-36) is dispensed to a final concentration of 2 nM is 100% and the cAMP concentration when only DMSO is dispensed is 0%, the 50% effective concentration (EC50) and the maximum effect (Emax) of the compound of the present invention are calculated using an increase in the cAMP concentration as an index, using TIBCO Spotfire (TIBCO Software). The dilution concentration or the dilution solvent are changed as necessary.
The compounds of the present invention were tested essentially as described above.

The mark [1] stands for this setting: CHO-K1, maximum effect, read-out: Emax.

The structures appear in SMILES notation. pEC50: −log10 of the molar value. Read-outs that look alike come from different tables or passages of the source.

The Emax is the greatest response seen or fitted, relative to the assay's reference. One may read the pEC50 as the negative decadic logarithm of the EC50, by convention in mol/L. The low end stands for a large EC50, the high end for a small EC50.

T1 sequence (P43220 24-463): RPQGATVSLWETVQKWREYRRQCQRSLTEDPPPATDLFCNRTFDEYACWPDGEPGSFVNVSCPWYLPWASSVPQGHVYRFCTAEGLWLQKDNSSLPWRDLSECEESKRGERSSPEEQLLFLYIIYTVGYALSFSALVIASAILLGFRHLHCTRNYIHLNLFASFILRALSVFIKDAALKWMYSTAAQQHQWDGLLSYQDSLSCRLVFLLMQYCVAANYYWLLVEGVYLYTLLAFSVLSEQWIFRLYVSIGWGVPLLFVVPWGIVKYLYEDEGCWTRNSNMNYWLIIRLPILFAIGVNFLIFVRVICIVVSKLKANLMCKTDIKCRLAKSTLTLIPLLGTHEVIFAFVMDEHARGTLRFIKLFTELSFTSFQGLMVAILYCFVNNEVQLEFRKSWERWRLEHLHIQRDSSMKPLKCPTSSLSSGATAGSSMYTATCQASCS

Compound `C[C@H]1c2nc(OCc3ccc(Cl)cc3F)c(Cl)cc2CCN1Cc1nc2ccc(C(=O)O)c(F)c2n1C[C@@H]1CCO1` [Compound I-045] had a pEC50 of 10.46. The Emax under setting [1] amounted to 131%.

In turn, `C[C@H]1c2nc(SCc3ccc(Cl)cc3F)c(C(F)(F)F)cc2CCN1Cc1nc2ccc(C(=O)O)cc2n1C[C@@H]1CCO1` [Compound I-096] had a negative-log EC50 (pEC50) of 9.61. Also, the Emax under setting [1] came to 103%.

`C[C@H]1c2nc(OCc3c(F)cc(F)cc3F)c(C(F)F)cc2CCN1Cc1nc2ccc(C(=O)O)c(F)c2n1C[C@@H]1CCO1` [Compound I-125]: the pEC50 was 10.07. Besides, the Emax under setting [1] amounted to 123%.

Take `COc1cc(C(=O)O)cc2c1nc(CN1CCc3cc(Cl)c(OCc4ccc(F)cc4F)nc3[C@@H]1C)n2C[C@@H]1CCO1` [Compound I-069]: the negative-log EC50 (pEC50) is 10.37. In addition, the Emax under setting [1] was 109%.

The compound `C[C@H]1c2nc(NCc3ccc(Cl)cc3)c(C(F)(F)F)cc2CCN1Cc1nc2c(F)cc(C(=O)O)cc2n1C[C@@H]1CCO1` [Compound I-169] had a negative-log EC50 (pEC50) of 9.72. Further, the maximal effect (Emax) under setting [1] is 109%.

In turn, `C[C@H]1c2nc(NCc3ccc(Cl)cc3F)c(C(F)(F)F)cc2CCN1Cc1nc2c(Cl)cc(C(=O)O)cc2n1C[C@@H]1CCO1` [Compound I-151] showed a pEC50 of 10.13. For the same compound, under setting [1], the maximal response (Emax) was 92.7%.

For `C[C@H]1c2nc(OCc3ccc(F)cc3F)c(Cl)cc2CCN1Cc1nc2ccc(C(=O)O)c(F)c2n1C[C@@H]1CCO1` [Compound I-037], the pEC50 was 9.98. Moreover, under setting [1], the Emax turned out to be 122%.

Compound `C[C@H]1c2nc(OCc3cc(Cl)cs3)c(C(F)(F)F)cc2CCN1Cc1nc2ccc(C(=O)O)cc2n1C[C@@H]1CCO1` [Compound I-148] had a pEC50 of 9.05. The Emax under setting [1] amounted to 99.3%.

As to `Cc1ccc(COc2cc3c(cc2C(F)F)CCN(Cc2nc4ccc(C(=O)O)cc4n2C[C@@H]2CCO2)[C@H]3C)cc1` [Compound I-005], the pEC50 is 8.47. Moreover, under setting [1], the Emax was found to be 111%.

`C[C@H]1c2nc(OCc3ccc(C#N)cc3F)c(Cl)cc2CCN1Cc1nc2ccc(C(=O)O)nc2n1C[C@@H]1CCO1` [Compound I-032] gave a pEC50 of 9.43. For the same compound, the Emax under setting [1] worked out at 126%.

The compound `C[C@H]1c2nc(OCc3ccc(Cl)cc3F)c(C(F)F)cc2CCN1Cc1nc2c(F)cc(C(=O)O)cc2n1C[C@@H]1CCO1` [Compound I-108] gave a pEC50 of 10.42. Moreover, the Emax under setting [1] was determined as 111%.

For `C[C@H]1c2nc(OCc3c(F)cc(Cl)cc3F)c(C(F)F)cc2CCN1Cc1nc2ccc(C(=O)O)nc2n1C[C@@H]1CCO1` [Compound I-101], the pEC50 is 9.33. Also, under setting [1], the Emax came to 108%.

The compound `C[C@H]1c2nc(OCc3cc(F)c(Cl)cc3F)c(Cl)cc2CCN1Cc1nc2ccc(C(=O)O)nc2n1C[C@@H]1CCO1` [Compound I-031] showed a pEC50 of 9.50. Besides, the Emax under setting [1] turned out to be 118%.

With `C[C@H]1c2nc(NCc3ccc(Cl)cc3F)c(C(F)(F)F)cc2CCN1Cc1nc2ccc(C(=O)O)c(F)c2n1C[C@@H]1CCO1` [Compound I-153], the pEC50 was 9.72. The Emax under setting [1] amounted to 112%.

Take `Cc1ccc(COc2nc3c(cc2C(F)F)CCN(Cc2nc4ccc(C(=O)O)c(F)c4n2C[C@@H]2CCO2)[C@H]3C)cc1` [Compound I-119]: the pEC50 is 9.83. Under setting [1], the Emax amounted to 120%.

Compound `C[C@H]1c2nc(OCc3ccc(C#N)c4ccoc34)c(C(F)(F)F)cc2CCN1Cc1nc2ccc(C(=O)O)cc2n1C[C@@H]1CCO1` [Compound I-143] had a pEC50 of 10.00. Besides, the Emax under setting [1] came out at 129%.

With `C[C@H]1c2nc(OCc3ccccc3Cl)c(Cl)cc2CCN1Cc1nc2ccc(C(=O)O)c(F)c2n1C[C@@H]1CCO1` [Compound I-036], the pEC50 was 9.36. Moreover, under setting [1], the maximum response (Emax) is 113%.

With `C[C@H]1c2nc(OCc3ccc(C#N)cc3F)c(Cl)cc2CCN1Cc1nc2ccc(C(=O)O)c(F)c2n1C[C@@H]1CCO1` [Compound I-041], the pEC50 is 10.20. The Emax under setting [1] is 145%.

In the case of `C[C@H]1c2nc(NCc3ccc(Cl)cc3Cl)c(C(F)(F)F)cc2CCN1Cc1nc2c(F)cc(C(=O)O)cc2n1C[C@@H]1CCO1` [Compound I-166], the pEC50 was 9.69. In addition, the Emax under setting [1] worked out at 109%.

`C[C@H]1c2c(cc(C(F)(F)F)c3c2O[C@](C)(c2ccc(Cl)cn2)O3)CCN1Cc1nc2ccc(C(=O)O)cc2n1C[C@@H]1CCO1` [Compound I-026] had a negative-log EC50 (pEC50) of 5.38. The Emax under setting [1] worked out at 53.3%.

The compound `C[C@H]1c2nc(OCc3ccc(Cl)cc3Cl)c(Cl)cc2CCN1Cc1nc2ccc(C(=O)O)c(F)c2n1C[C@@H]1CCO1` [Compound I-038] had a pEC50 of 10.23. Further, the Emax under setting [1] was 126%.

As for `C[C@H]1c2nc(OCc3ccc(C#N)cc3F)c(Cl)cc2CCN1Cc1nc2c(F)cc(C(=O)O)cc2n1C[C@@H]1CCO1` [Compound I-086], the pEC50 is 10.16. Moreover, the Emax under setting [1] is 101%.

Compound `C[C@H]1c2nc(OCc3ccc(Cl)cn3)c(C(F)F)cc2CCN1Cc1nc2c(F)cc(C(=O)O)cc2n1C[C@@H]1CCO1` [Compound I-112] showed a pEC50 of 9.72. Also, the maximum response (Emax) under setting [1] stood at 110%.

Regarding `Cc1ccc(COc2nc3c(cc2Cl)CCN(Cc2nc4ccc(C(=O)O)cc4n2C[C@@H]2CCO2)[C@H]3C)cc1` [Compound I-028], the pEC50 was 9.13. Besides, the maximal response (Emax) (maximum effect) was 110%.

Turning to `C[C@H]1c2nc(NCc3ccc(Cl)cn3)c(C(F)(F)F)cc2CCN1Cc1nc2c(F)cc(C(=O)O)cc2n1C[C@@H]1CCO1` [Compound I-196], the pEC50 is 9.21. In addition, the Emax under setting [1] worked out at 108%.

As for `COc1cc(C(=O)O)cc2c1nc(CN1CCc3cc(Cl)c(OCc4ccc(Cl)cc4Cl)nc3[C@@H]1C)n2C[C@@H]1CCO1` [Compound I-070], the pEC50 is 10.73. Further, the Emax under setting [1] came out at 105%.

In the case of `C[C@H]1c2nc(OCc3ccc(F)cc3F)c(C(F)F)cc2CCN1Cc1nc2ccc(C(=O)O)c(F)c2n1C[C@@H]1CCO1` [Compound I-121], the pEC50 was 9.83. Also, the maximal effect (Emax) under setting [1] was found to be 119%.

The compound `COc1cc(C(=O)O)cc2c1nc(CN1CCc3cc(C#N)c(OCc4cc(F)c(Cl)cc4F)nc3[C@@H]1C)n2C[C@@H]1CCO1` [Compound I-146] had a pEC50 of 10.53. For the same compound, under setting [1], the Emax was determined as 115%.

`C[C@H]1c2nc(OCc3cnn(C)n3)c(C(F)(F)F)cc2CCN1Cc1nc2ccc(C(=O)O)cc2n1C[C@@H]1CCO1` [Compound I-142] showed a negative logarithm of the EC50 (pEC50) of 8.13. The Emax under setting [1] was found to be 117%.

Regarding `COc1cc(C(=O)O)cc2c1nc(CN1CCc3cc(C#N)c(OCc4ccc(Cl)cc4F)nc3[C@@H]1C)n2C[C@@H]1CCO1` [Compound I-139], the pEC50 is 10.49. Further, under setting [1], the maximal response (Emax) was found to be 118%.

As to `C[C@H]1c2nc(OCc3ccc(F)cc3F)c(Cl)cc2CCN1Cc1nc2c(F)cc(C(=O)O)cc2n1C[C@@H]1CCO1` [Compound I-083], the pEC50 is 9.91. For the same compound, under setting [1], the Emax is 116%.

The compound `C[C@H]1c2nc(OCc3c(F)cc(Cl)cc3F)c(Cl)cc2CCN1Cc1nc2c(F)cc(C(=O)O)cc2n1C[C@@H]1CCO1` [Compound I-088] showed a pEC50 of 10.06. In addition, under setting [1], the Emax worked out at 103%.

Compound `COc1cc(C(=O)O)cc2c1nc(CN1CCc3cc(C#N)c(OCc4ccccc4Cl)nc3[C@@H]1C)n2C[C@@H]1CCO1` [Compound I-145] gave a pEC50 of 9.92. Moreover, under setting [1], the Emax is 109%.

For the origin of these results see patent US20260097037A1, “FUSED RING COMPOUND HAVING GLP-1 RECEPTOR AGONIST EFFECT” (Shionogi & Co., Ltd., priority 2022, published 2026).
